How the values were obtained:
Settings in all cases: 72 h
Calu-3 [1] = assay: relative viability EC50 (midpoint between 100% and the lowest measured viability); higher = less toxic
HepG2 [2] = assay: as above
Caco-2 [3] = assay: as above
Vero E6 [4] = assay: as above
U2OS [5] = assay: as above
Calu-3 [6] = assay: drug sensitivity score (DSS) for viability; higher = more toxic; extreme values may be limits of the assay
HepG2 [7] = assay: as above
Caco-2 [8] = assay: as above
Vero E6 [9] = assay: as above
U2OS [10] = assay: as above
Calu-3 [11] = assay: cell viability relative to DMSO; higher = less toxic
HepG2 [12] = assay: as above
Caco-2 [13] = assay: as above
Vero E6 [14] = assay: as above
U2OS [15] = assay: as above

Row | Structure (SMILES) | relative viability EC50 (Calu-3 [1]) | relative viability EC50 (HepG2 [2]) | relative viability EC50 (Caco-2 [3]) | relative viability EC50 (Vero E6 [4]) | relative viability EC50 (U2OS [5]) | drug sensitivity score (Calu-3 [6]) | drug sensitivity score (HepG2 [7]) | drug sensitivity score (Caco-2 [8]) | drug sensitivity score (Vero E6 [9]) | drug sensitivity score (U2OS [10]) | cell viability (Calu-3 [11]; 1 nM) | cell viability (Calu-3 [11]; 10 nM) | cell viability (Calu-3 [11]; 100 nM) | cell viability (Calu-3 [11]; 1000 nM) | cell viability (Calu-3 [11]; 10000 nM) | cell viability (HepG2 [12]; 1 nM) | cell viability (HepG2 [12]; 10 nM) | cell viability (HepG2 [12]; 100 nM) | cell viability (HepG2 [12]; 1000 nM) | cell viability (HepG2 [12]; 10000 nM) | cell viability (Caco-2 [13]; 1 nM) | cell viability (Caco-2 [13]; 10 nM) | cell viability (Caco-2 [13]; 100 nM) | cell viability (Caco-2 [13]; 1000 nM) | cell viability (Caco-2 [13]; 10000 nM) | cell viability (Vero E6 [14]; 1 nM) | cell viability (Vero E6 [14]; 10 nM) | cell viability (Vero E6 [14]; 100 nM) | cell viability (Vero E6 [14]; 1000 nM) | cell viability (Vero E6 [14]; 10000 nM) | cell viability (U2OS [15]; 1 nM) | cell viability (U2OS [15]; 10 nM) | cell viability (U2OS [15]; 100 nM) | cell viability (U2OS [15]; 1000 nM) | cell viability (U2OS [15]; 10000 nM)
1 | CCc1cccc2c3c([nH]c12)C(CC)(CC(=O)O)OCC3 (stereo not given) [etodolac] | > 10 µM | > 10 µM | > 10 µM | > 10 µM | > 10 µM | 0 | 0 | 0 | 0 | 0 | 98% | 107% | 98.7% | 91.9% | 106% | 105% | 107% | 96.3% | 94.4% | 99.1% | 86.2% | 99.4% | 82.7% | 86.9% | 87.9% | 91.7% | 98.8% | 93.7% | 105% | 95.2% | 95.7% | 103% | 96.2% | 104% | 93.4%
2 | CC(=O)N1CCN(C)CC1 [1-acetyl-4-methylpiperazine] | > 10 µM | > 10 µM | > 10 µM | > 10 µM | > 10 µM | 0 | 0 | 0 | 0 | 0 | 89.8% | 86.6% | 95% | 100% | 93.8% | 104% | 111% | 101% | 99.5% | 100% | 100% | 93.6% | 101% | 95.7% | 97.3% | 105% | 104% | 104% | 98.2% | 95.9% | 103% | 99.1% | 96.2% | 99.8% | 102%
3 | NC(=O)C(c1ccccc1)(c1ccc(F)cc1)c1ccc(F)cc1 [senicapoc] | > 10 µM | > 10 µM | > 10 µM | > 10 µM | > 10 µM | 0 | 0 | 0 | 0 | 0 | 99% | 96.7% | 99% | 102% | 92.3% | 93.4% | 98.8% | 96.4% | 95.5% | 97.7% | 101% | 105% | 102% | 92.4% | 99.4% | 96.9% | 99.1% | 94.5% | 97.3% | 92.9% | 102% | 96.9% | 104% | 98.8% | 98.8%
4 | COc1cc2nc(N3CCN(C(=O)c4ccco4)CC3)nc(N)c2cc1OC [prazosin] | > 10 µM | > 10 µM | > 10 µM | > 10 µM | > 10 µM | 0 | 0 | 0 | 0 | 0 | 105% | 102% | 103% | 97.4% | 99.1% | 89.9% | 93.5% | 86.2% | 91.9% | 97.6% | 94.4% | 91.2% | 98.4% | 96% | 92.5% | 102% | 105% | 101% | 99.3% | 118% | 98.2% | 97.8% | 99.5% | 102% | 101%
5 | CCS(=O)(=O)N(C)[C@@H]1c2cc(C#N)ccc2OC(C)(C)[C@H]1O.CCS(=O)(=O)N(C)[C@H]1c2cc(C#N)ccc2OC(C)(C)[C@@H]1O (racemic) [chromanol-(+/-)] | > 10 µM | > 10 µM | > 10 µM | > 10 µM | > 10 µM | 0 | 0 | 0 | 0 | 0 | 103% | 99.8% | 92.5% | 102% | 97.5% | 106% | 105% | 100% | 96.7% | 94.6% | 90.9% | 89.9% | 100% | 106% | 93.5% | 101% | 102% | 101% | 103% | 95.6% | 100% | 96.9% | 102% | 96.2% | 102%
6 | O=C(Nc1ccc2[nH]ccc2c1)c1ccccc1 [OAC2] | > 10 µM | > 10 µM | > 10 µM | > 10 µM | > 10 µM | 0 | 0 | 0 | 0 | 0 | 102% | 99% | 104% | 99.3% | 96.6% | 104% | 106% | 97.3% | 99.7% | 101% | 91.9% | 91.3% | 95.1% | 98.7% | 94.5% | 92.3% | 95.7% | 99.6% | 92.8% | 95.5% | 103% | 97.2% | 97.1% | 104% | 95.3%
7 | O=C(Nc1ccccc1F)N[C@H]1N=C(c2ccccc2)c2ccccc2NC1=O [RSV604] | > 10 µM | > 10 µM | > 10 µM | > 10 µM | > 10 µM | 0 | 0 | 0.1 | 0 | 0 | 94.2% | 90.5% | 99.2% | 102% | 89.8% | 109% | 110% | 95.9% | 96.5% | 109% | 92.5% | 107% | 97.2% | 102% | 85.2% | 95.1% | 101% | 95.8% | 95.3% | 92% | 98.5% | 98.5% | 98.5% | 105% | 100%
